Patent US12263172B2, “Toll-like receptor agonists for use in the treatment of hepatitis b” (priority 2019, dated 2025)

Tested on: CYP1A2, 2B6, and 3A4
Test: in vitro CYP induction
Format: in vitro ADME
Details: up to 10 μM

Question: For CCCCOc1nc(N)c2[nH]cc(Cc3ccc(CN4CCCC4)cc3)c2n1 [Compound 4], which “in vitro induction of CYP1A2, 2B6, and 3A4” value is on record?
Answer: not an in vitro inducer
